US11053204B2, “Pyrimidinyloxy benzene derivatives as herbicides” (FMC Corporation, priority 2015, dated 2021)

Key:
Assay type in all cases: in vivo
[1] = tested on: ducksalad (Heteranthera limosa); test: Test B flooded paddy test, plant response rating; conditions: 250 g ai/ha; Flood; scale of 0 to 100 where 0 is no effect and 100 is complete control; 13 to 15 days
Method in brief: (§1)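 Ratings were visual and made relative to untreated controls after 13 to 15 greenhouse days.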

rice (Oryza sativa) = test: Test B flooded paddy test, plant response rating; conditions: 250 g ai/ha; Flood; scale of 0 to 100 where 0 is no effect and 100 is complete control; 13 to 15 days
Method in brief: as §1

[2] = tested on: sedge, umbrella (small-flower umbrella sedge, Cyperus difformis); test: Test B flooded paddy test, plant response rating; conditions: 250 g ai/ha; Flood; scale of 0 to 100 where 0 is no effect and 100 is complete control; 13 to 15 days
Method in brief: as §1

[3] = tested on: blackgrass (Alopecurus myosuroides); test: Test C preemergence, plant response rating; conditions: Preemergence
Method in brief: (§2)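 Visual injury score, 0 = no effect, 100 = complete control, assigned against untreated controls after 13 to 15 d in the greenhouse. Compounds were applied in a surfactant-containing non-phytotoxic solvent mix, preemergence to seeded loam/sand or silt loam soil, or postemergence to 1- to 4-leaf plants (2 to 18 cm).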

corn (Zea mays) = test: Test C preemergence, plant response rating; conditions: Preemergence
Method in brief: as §2

[4] = tested on: crabgrass, large (large crabgrass, Digitaria sanguinalis); test: Test C preemergence, plant response rating; conditions: Preemergence
Method in brief: as §2

[5] = tested on: foxtail, giant (giant foxtail, Setaria faberii); test: Test C preemergence, plant response rating; conditions: Preemergence
Method in brief: as §2

[6] = tested on: lambsquarters (Chenopodium album); test: Test C preemergence, plant response rating; conditions: Preemergence
Method in brief: as §2

[7] = tested on: morningglory (Ipomoea coccinea); test: Test C preemergence, plant response rating; conditions: Preemergence
Method in brief: as §2

[8] = tested on: nutsedge, yellow (yellow nutsedge, Cyperus esculentus); test: Test C preemergence, plant response rating; conditions: Preemergence
Method in brief: as §2

[9] = tested on: oilseed rape (Brassica napus); test: Test C preemergence, plant response rating; conditions: Preemergence
Method in brief: as §2

[10] = tested on: ragweed (common ragweed, Ambrosia elatior); test: Test C preemergence, plant response rating; conditions: Preemergence
Method in brief: as §2

[11] = tested on: ryegrass, Italian (Italian ryegrass, Lolium multiflorum); test: Test C preemergence, plant response rating; conditions: Preemergence
Method in brief: as §2

soybean (Glycine max) = test: Test C preemergence, plant response rating; conditions: Preemergence
Method in brief: as §2

[12] = tested on: velvetleaf (Abutilon theophrasti); test: Test C preemergence, plant response rating; conditions: Preemergence
Method in brief: as §2

[13] = tested on: waterhemp (common waterhemp, Amaranthus rudis); test: Test C preemergence, plant response rating; conditions: Preemergence
Method in brief: as §2

[14] = tested on: wheat (winter wheat, Triticum aestivum); test: Test C preemergence, plant response rating; conditions: Preemergence
Method in brief: as §2

[15] = tested on: surinam grass (Brachiaria decumbens); test: Test C preemergence, plant response rating
[16] = tested on: wild poinsettia (Euphorbia heterophylla); test: Test C preemergence, plant response rating
[17] = tested on: oat, wild (wild oat Avena fatua); test: Test C preemergence, plant response rating

CCCCC(=O)c1c(Oc2ncc(Cl)cn2)cccc1C(F)(F)F [Compound 130]
Plant response rating, Ducksalad [1]: 40
Plant response rating, Rice (rice (Oryza sativa)): 35
Plant response rating, Sedge, Umbrella [2]: 98
Plant response rating, Blackgrass ([3]; 125 g ai/ha, scale of 0 to 100): 85
Plant response rating, Blackgrass ([3]; 16 g ai/ha, scale 0 to 100): 30
Plant response rating, Blackgrass ([3]; 31 g ai/ha, scale 0 to 100): 30
Plant response rating, Blackgrass ([3]; 62 g ai/ha, scale 0 to 100): 60
Plant response rating, Corn (corn (Zea mays); 125 g ai/ha, scale of 0 to 100): 25
Plant response rating, Corn (corn (Zea mays); 16 g ai/ha, scale 0 to 100): 5
Plant response rating, Corn (corn (Zea mays); 31 g ai/ha, scale 0 to 100): 0
Plant response rating, Corn (corn (Zea mays); 62 g ai/ha, scale 0 to 100): 5
Plant response rating, Crabgrass, Large ([4]; 125 g ai/ha, scale of 0 to 100): 100
Plant response rating, Crabgrass, Large ([4]; 16 g ai/ha, scale 0 to 100): 98
Plant response rating, Crabgrass, Large ([4]; 31 g ai/ha, scale 0 to 100): 100
Plant response rating, Crabgrass, Large ([4]; 62 g ai/ha, scale 0 to 100): 100
Plant response rating, Foxtail, Giant ([5]; 125 g ai/ha, scale of 0 to 100): 100
Plant response rating, Foxtail, Giant ([5]; 31 g ai/ha, scale 0 to 100): 70
Plant response rating, Foxtail, Giant ([5]; 62 g ai/ha, scale 0 to 100): 98
Plant response rating, Lambsquarters ([6]; 125 g ai/ha, scale of 0 to 100): 95
Plant response rating, Lambsquarters ([6]; 31 g ai/ha, scale 0 to 100): 30
Plant response rating, Lambsquarters ([6]; 62 g ai/ha, scale 0 to 100): 35
Plant response rating, Morningglory ([7]; 125 g ai/ha, scale of 0 to 100): 10
Plant response rating, Morningglory ([7]; 31 g ai/ha, scale 0 to 100): 5
Plant response rating, Morningglory ([7]; 62 g ai/ha, scale 0 to 100): 20
Plant response rating, Nutsedge, Yellow ([8]; 125 g ai/ha, scale of 0 to 100): 0
Plant response rating, Nutsedge, Yellow ([8]; 31 g ai/ha, scale 0 to 100): 0
Plant response rating, Nutsedge, Yellow ([8]; 62 g ai/ha, scale 0 to 100): 0
Plant response rating, Oilseed Rape ([9]; 125 g ai/ha, scale of 0 to 100): 95
Plant response rating, Oilseed Rape ([9]; 31 g ai/ha, scale 0 to 100): 10
Plant response rating, Oilseed Rape ([9]; 62 g ai/ha, scale 0 to 100): 40
Plant response rating, Ragweed ([10]; 125 g ai/ha, scale of 0 to 100): 10
Plant response rating, Ragweed ([10]; 31 g ai/ha, scale 0 to 100): 0
Plant response rating, Ragweed ([10]; 62 g ai/ha, scale 0 to 100): 5
Plant response rating, Ryegrass, Italian ([11]; 125 g ai/ha, scale of 0 to 100): 70
Plant response rating, Ryegrass, Italian ([11]; 31 g ai/ha, scale 0 to 100): 35
Plant response rating, Ryegrass, Italian ([11]; 62 g ai/ha, scale 0 to 100): 60
Plant response rating, Soybean (soybean (Glycine max); 125 g ai/ha, scale of 0 to 100): 30
Plant response rating, Soybean (soybean (Glycine max); 31 g ai/ha, scale 0 to 100): 0
Plant response rating, Soybean (soybean (Glycine max); 62 g ai/ha, scale 0 to 100): 10
Plant response rating, Velvetleaf ([12]; 125 g ai/ha, scale of 0 to 100): 85
Plant response rating, Velvetleaf ([12]; 31 g ai/ha, scale 0 to 100): 10
Plant response rating, Velvetleaf ([12]; 62 g ai/ha, scale 0 to 100): 75
Plant response rating, Waterhemp ([13]; 125 g ai/ha, scale of 0 to 100): 100
Plant response rating, Waterhemp ([13]; 31 g ai/ha, scale 0 to 100): 100
Plant response rating, Waterhemp ([13]; 62 g ai/ha, scale 0 to 100): 100
Plant response rating, Wheat ([14]; 125 g ai/ha, scale of 0 to 100): 0
Plant response rating, Wheat ([14]; 31 g ai/ha, scale 0 to 100): 0
Plant response rating, Wheat ([14]; 62 g ai/ha, scale 0 to 100): 5
Plant response rating, Surinam Grass ([15]; 31 g ai/ha, scale 0 to 100): 50
Plant response rating, Surinam Grass ([15]; 62 g ai/ha, scale 0 to 100): 65
Plant response rating, Surinam Grass ([15]; 125 g ai/ha, scale of 0 to 100): 80
Plant response rating, Poinsettia, Wild ([16]; 31 g ai/ha, scale 0 to 100): 0
Plant response rating, Poinsettia, Wild ([16]; 62 g ai/ha, scale 0 to 100): 10
Plant response rating, Poinsettia, Wild ([16]; 125 g ai/ha, scale of 0 to 100): 45
Plant response rating, Oat, Wild ([17]; 31 g ai/ha, scale 0 to 100): 15
Plant response rating, Oat, Wild ([17]; 62 g ai/ha, scale 0 to 100): 35
Plant response rating, Oat, Wild ([17]; 125 g ai/ha, scale of 0 to 100): 60
